This is an account of results in patent US20250353841A1 (BIOGEN MA INC., priority 2022, published 2025).

The structures appear in SMILES notation. A value given as a limit tells only on which side of the number the result lay.

In the test the test system is mutant Huntington (HTT) protein. Nature of the test: HTT Mutant HTRF iPSC assay (mHTT protein lowering). The format is cell-based. The note with it: human iPSC derived from a HTT patient with a poly-Q49 mutation.

As usually defined, the IC50 is the concentration that inhibits the measured activity by half. Low values mean inhibition by little substance, high ones a need for much substance. Consider `Cc1cn2nc(-c3cc(F)c4nc(C5CCNC5)cn4c3)cc(C)c2n1` (stereo not drawn) [Compound 160, 6-(8-fluoro-2-(pyrrolidin-3-yl)imidazo[1,2-a]pyridin-6-yl)-2,8-dimethylimidazo[1,2-b]pyridazine], for which the IC50 is less than 0.1 µM.

Take `COc1cc(-c2cc(F)c3nc(C4CCN(C)CC4)cn3c2)nn2nc(C)nc12` [Compound 225, 6-(8-fluoro-2-(1-methylpiperidin-4-yl)imidazo[1,2-a]pyridin-6-yl)-8-methoxy-2-methyl-[1,2,4]triazolo[1,5-b]pyridazine]: the IC50 is less than 0.1 µM.

`Cc1cn2nc(-c3cc(F)c4[nH]c(C5CCNC(C)(C)C5)nc4c3)cc(C)c2n1` (stereo not drawn) [Compound 419]: the IC50 was in the range of 0.1 to 1 µM.

Take `Cc1cn2nc(-c3cc(F)c4nc(NC(=O)[C@H]5[C@@H]6CN(C)C[C@@H]65)cn4c3)cc(C)c2n1` [Compound 262, (1R,5S,6r)-N-(6-(2,8-dimethylimidazo[1,2-b]pyridazin-6-yl)-8-fluoroimidazo[1,2-a]pyridin-2-yl)-3-methyl-3-azabicyclo[3.1.0]hexane-6-carboxamide]: the IC50 was less than 0.1 µM.

In turn, `Cc1cn2cc(-c3cc(F)c4nn(C5CCNCC5)cc4c3)cc2c(C)n1` [Compound 369, 5-(1,3-dimethylpyrrolo[1,2-a]pyrazin-7-yl)-7-fluoro-2-(piperidin-4-yl)-2H-indazole] yielded an IC50 of less than 0.1 µM.

`Cc1cn2nc(-c3cc(F)c4nc([C@H]5[C@@H]6CN(CC(F)F)C[C@@H]65)cn4c3)cc(C)c2n1` [Compound 217, 6-(2-((1R,5S,6r)-3-(2,2-difluoroethyl)-3-azabicyclo[3.1.0]hexan-6-yl)-8-fluoroimidazo[1,2-a]pyridin-6-yl)-2,8-dimethylimidazo[1,2-b]pyridazine] gave an IC50 of 0.1 to 1 µM.

In turn, `Cc1cn2nc(-c3cc(F)c4nc(NC(=O)CC5CCNCC5)cn4c3)cc(C)c2n1` [Compound 284, N-(6-(2,8-dimethylimidazo[1,2-b]pyridazin-6-yl)-8-fluoroimidazo[1,2-a]pyridin-2-yl)-2-(piperidin-4-yl)acetamide] came in with an IC50 of 0.1 to 1 µM.

Regarding `Cc1cn2nc(-c3cc(F)c4nc(C5CCN(C6(C)CC6)CC5)cn4c3)cc(C)c2n1` [Compound 226, 6-[8-fluoro-2-[1-(1-methylcyclopropyl)-4-piperidyl]imidazo[1,2-a]pyridin-6-yl]-2,8-dimethyl-imidazo[1,2-b]pyridazine], the IC50 is 0.1 to 1 µM.

Consider `Cn1cc2cc(-c3cc(F)c4nc(C5CCNCC5)cn4c3)cc(F)c2n1` [Compound 93, 7-fluoro-5-(8-fluoro-2-(piperidin-4-yl)imidazo[1,2-a]pyridin-6-yl)-2-methyl-2H-indazole], for which the IC50 lay within 0.1 to 1 µM.

`Fc1cc(-c2cc(F)c3nc(C4CCNCC4)cn3c2)cc2[nH]ncc12` [Compound 52, 4-fluoro-6-(8-fluoro-2-(piperidin-4-yl)imidazo[1,2-a]pyridin-6-yl)-1H-indazole] registered an IC50 of 1 to 9 µM.

With `Cn1cc2cc(-c3cc(F)c4nc(C5CCNCC5)cn4c3)cc(C#N)c2n1` [Compound 85, 5-(8-fluoro-2-(piperidin-4-yl)imidazo[1,2-a]pyridin-6-yl)-2-methyl-2H-indazole-7-carbonitrile], the IC50 lay in the range of 0.1 to 1 µM.

Consider `Cn1cc2cc(-c3cc(F)c4nc(C56CCNC(C5)C6)cn4c3)cc(F)c2n1` [Compound 75], for which the IC50 was in the range of 1 to 9 µM.

`Cc1cn2nc(-c3cc(F)c4nc(C(=O)NC5CCNC6(CC6)C5)cn4c3)cc(C)c2n1` (single isomer, unassigned) [Compound 348]: the IC50 fell in the range of 0.1 to 1 µM.

For `Cc1cn2nc(-c3cc(F)c4nc(C5CC6(CCN(C)CC6)C5)oc4c3)cc(C)c2n1` [Compound 458, 6-(2,8-dimethylimidazo[1,2-b]pyridazin-6-yl)-4-fluoro-2-(7-methyl-7-azaspiro[3.5]nonan-2-yl)benzo[d]oxazole], the IC50 was in the range of 0.1 to 1 µM.

Take `Cc1cc(-c2cc(F)c3[nH]c(C4CCNCC4)nc3c2)cc2cn(C)nc12` [Compound 142, 5-(7-fluoro-2-(piperidin-4-yl)-1H-benzo[d]imidazol-5-yl)-2,7-dimethyl-2H-indazole]: the IC50 fell in the range of 1 to 9 µM.

Compound `Cc1nc2ccc(-c3cc(F)c4nc(C5CCNCC5)cn4c3)cn2n1` [Compound 37, 6-(8-fluoro-2-(piperidin-4-yl)imidazo[1,2-a]pyridin-6-yl)-2-methyl-[1,2,4]triazolo[1,5-a]pyridine] gave an IC50 of 1 to 9 µM.

On to `Cc1cn2nc(-c3cc(F)c4nc(C5CCN(C6COC6C)CC5)cn4c3)cc(C)c2n1` (stereo not drawn) [Compound 213, 6-(8-fluoro-2-(1-(2-methyloxetan-3-yl)piperidin-4-yl)imidazo[1,2-a]pyridin-6-yl)-2,8-dimethylimidazo[1,2-b]pyridazine], for which the IC50 lay within 0.1 to 1 µM.

The compound `Cc1cn2nc(-c3cc(F)c4nc(C5C6CCC5CNC6)cn4c3)cc(C)c2n1` (stereo not drawn) [Compound 183, 6-(2-(3-azabicyclo[3.2.1]]octan-8-yl)-8-fluoroimidazo[1,2-a]pyridin-6-yl)-2,8-dimethylimidazo[1,2-blpyridazine] gave an IC50 of 0.1 to 1 µM.

`Cc1nc2c(C)cc(-c3cc(F)c4nc(C5CCN(C)CC5)cn4c3)nn2n1` [Compound 224]: the IC50 is less than 0.1 µM.

For the compound `Cc1cn2nc(-c3cc(F)c4nc(C5(F)CCNCC5)cn4c3)cc(C)c2n1` [Compound 158, 6-(8-fluoro-2-(4-fluoropiperidin-4-yl)imidazo[1,2-a]pyridin-6-yl)-2,8-dimethylimidazo[1,2-b]pyridazine], the IC50 is less than 0.1 µM.

In turn, `Cn1cc2cc(-c3cc(F)c4nc(CC5CNC5)cn4c3)cc(F)c2n1` [Compound 19, 5-(2-(azetidin-3-ylmethyl)-8-fluoroimidazo[1,2-a]pyridin-6-yl)-7-fluoro-2-methyl-2H-indazole] came in with an IC50 of 1 to 9 µM.

In the case of `Cc1cn2nc(-c3cc(F)c4nc(C[C@H]5C[C@H](N)C5)nn4c3)cc(C)c2n1` [Compound 449, (1r,3r)-3-((6-(2,8-dimethylimidazo[1,2-b]pyridazin-6-yl)-8-fluoro-[1,2,4]triazolo[1,5-a]pyridin-2-yl)methyl)cyclobutan-1-amine], the IC50 is 0.1 to 1 µM.

Compound `Cc1cn2nc(-c3cc(F)c4nn(C5CCNCC5)nc4c3)cc2c(C)n1` [Compound 388, 6-(4,6-dimethylpyrazolo[1,5-a]pyrazin-2-yl)-4-fluoro-2-(piperidin-4-yl)-2H-benzo[d][1,2,3]triazole] showed an IC50 of 0.1 to 1 µM.

Turning to `Cc1cn2nc(-c3cc(F)c4nc(NC(=O)C5CCCN(C)C5)cn4c3)cc(C)c2n1` (single isomer, unassigned) [Compound 278], the IC50 is less than 0.1 µM.

Compound `Cc1cn2nc(-c3ccc4nc(C5CCNCC5)oc4c3)cc(C)c2n1` [Compound 550, 6-(2,8-dimethylimidazo[1,2-b]pyridazin-6-yl)-2-(4-piperidyl)-1,3-benzoxazole] came in with an IC50 of 0.1 to 1 µM.

In turn, `Cc1cn2nc(-c3cc(F)c4nc(N5CCCC(N6CCCCC6)C5)oc4c3)cc(C)c2n1` (stereo not drawn) [Compound 490, 2-([1,3′-bipiperidin]-1′-yl)-6-(2,8-dimethylimidazo[1,2-b]pyridazin-6-yl)-4-fluorobenzo[d]oxazole] displayed an IC50 of 0.1 to 1 µM.

In turn, `COCCN1CCC(n2cc3cc(-c4cc(C(F)(F)F)c5nc(C)cn5n4)cc(F)c3n2)CC1` [Compound 373, 6-(7-fluoro-2-(1-(2-methoxyethyl)piperidin-4-yl)-2H-indazol-5-yl)-2-methyl-8-(trifluoromethyl)imidazo [1,2-b]pyridazine] came in with an IC50 of less than 0.1 µM.
